Test results from patent US20250189546A1, “METHODS FOR ANALYZING DRUG MOLECULES IN MAMMALIAN TISSUES” (The Scripps Research Institute, priority 2022, published 2025).
“Also recorded” adds a separate entry of the source. Read-outs that look alike come from different tables or passages of the source.

Assays:
[1] = humans, cited from earlier work
FAAH [2] = target: T1, FAAH (Mus musculus, UniProt O08914); experiment: Competitive CATCH: parental PF7845 followed by PF7845-yne probe; type: in vivo
T1 construct: from tissue; host or cells: mouse brain (C57BL6J wild type)
T1 sequence (O08914 1-579): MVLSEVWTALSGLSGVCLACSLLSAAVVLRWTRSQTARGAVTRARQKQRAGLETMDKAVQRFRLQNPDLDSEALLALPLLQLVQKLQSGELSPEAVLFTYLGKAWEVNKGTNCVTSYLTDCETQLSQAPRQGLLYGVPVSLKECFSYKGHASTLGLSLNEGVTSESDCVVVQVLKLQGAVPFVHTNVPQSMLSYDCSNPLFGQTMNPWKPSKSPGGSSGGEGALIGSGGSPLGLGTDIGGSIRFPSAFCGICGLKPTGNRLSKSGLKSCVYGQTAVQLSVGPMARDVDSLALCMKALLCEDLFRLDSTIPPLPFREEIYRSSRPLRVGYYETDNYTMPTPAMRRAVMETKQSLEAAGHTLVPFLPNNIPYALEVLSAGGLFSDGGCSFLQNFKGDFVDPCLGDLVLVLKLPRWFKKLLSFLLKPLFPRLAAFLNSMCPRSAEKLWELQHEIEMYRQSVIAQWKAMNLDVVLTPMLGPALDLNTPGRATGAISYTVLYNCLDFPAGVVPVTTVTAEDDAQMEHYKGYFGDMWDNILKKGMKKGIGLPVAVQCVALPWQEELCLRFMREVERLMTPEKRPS
From the text: After establishing CATCH's specificity, scalability, compatibility, and resolution, finally, the inventors tested if CATCH can be used to quantitatively resolve dose-dependent target engagement after in vivo drug administration. […] In this competitive CATCH approach, animals are first treated with a dose range of the parental drugs, followed by a single high dose of the alkyne probes. The dose-dependent target engagement by the parental drug can be recorded based on the competitive blockade of signal in an anatomically specific manner (FIG. 8, A).
The inventors treated mice with 0.01-1 mg/kg of parental PF7845 followed by 1 mg/kg PF7845-yne probe to readout the dose-dependent brain targets of PF7845 by competitive CATCH. […] Conversely, the inventors adopted a direct approach to visualize dose-dependent alkyne drug PK properties (FIG. 8, C).
Sample collection: Inhibitors were administered to mice in a vehicle of 10% DMSO, 2% Tween-80 in saline for intraperitoneal (i.p.) injections. After drug injection at designated dose and time, mice were heavily anesthetized with isoflurane and then transcardially perfused with ice cold PBS followed by ice cold 4% PFA in PBS with sucrose. Mouse brains or other peripheral tissues were then dissected out and post fixed in 4% PFA overnight at 4° C. Tissues were washed with PBS, embedded in 2% agarose and sectioned as 100-micron or 500-micron tissue sections by vibratome (Leica VT1000S). Tissue sections were stored in PBS with 0.02% sodium azide at 4° C. for further processing.
(§1) CATCH labeling: For 100-micron sections labeling, the full CATCH reaction buffer contains: 5 μM AF647-picolyl azide, 150 μM CuSO4, 300 μM BTTP, 2.5 mM sodium ascorbate, and 10% DMSO in PBS. Tissue sections were incubated in click incubation buffer (without sodium ascorbate) overnight at RT. Tissues were then transferred to newly prepared incubation buffer and 100 mM freshly prepared sodium ascorbate was subsequently added to initiate the reaction. After 1 hour at RT in the dark with minor agitation, the reaction was quenched by addition of 4 mM EDTA in PBS (pH=8.0) and samples were washed 3×10 min with PBST. After removing click reaction cocktail, samples were stained by DAPI (1:3000 dilution in PBS from 10 μM stock) for 15 min at RT and would be ready for RI matching and imaging. They could also undergo further staining for cell type registration. For 500-micron sections, 300 μM CuSO4 and 600 μM BTTP were used for incubation and reaction. To achieve full labeling, tissues were incubated at 37° C. for 2 days, and underwent 4 rounds of 1 h click reaction at RT.

[3] = system: monoacylglycerol lipase (MAGL); experiment: CATCH subcellular compartment imaging in hippocampus with synapsin and MAP2 immunostaining; type: in vivo, mouse
From the text: Because MAGL is restricted in localization to presynaptic axonal terminals, whereas FAAH is expressed in neuronal soma, the inventors sought to determine whether CATCH could detect on-and off-target MJN110-yne binding across subcellular compartments. The inventors focused on the well-characterized CA3 to CA1 projection in the hippocampus as it allowed us to observe both axon terminals and soma in the same field of view.
as §1
Immunostaining: Samples were incubated with primary antibodies in PBST overnight at 4° C. unless otherwise noted. Samples were then washed with PBST, 3×30 min, RT and transferred to secondary antibodies diluted in PBST. Samples were incubated with secondary antibodies overnight, RT and washed with PBST 3×30 min. For antibody elution, imaged slides were dismounted, and tissues were washed by 8% PBS-SDS (pH=7.0) at 60° C. for 8 hours. Samples were then washed by PBST 3×10 min at RT to remove residual SDS and could undergo the next round of staining.
Subcellular compartment intensity analysis: For MJN110-yne characterization, images were acquired at 5 μm from the tissue surface where the highest immunostaining signal can be observed. Different cellular compartments were identified by applying a threshold in immunostaining signal and mean drug labeling intensity was measured in the selected threshold region. Three random squares were drawn in nucleus in different cells and their average intensity was used as background. The recorded intensity value in soma or axonal terminal was then subtracted by the intensity in the nucleus for background adjustment. Data was then normalized to the average intensity of the control group as indicated in each figure legends.

FAAH [4] = target: T1, FAAH; experiment: Gel-based CC-ABPP of whole brain lysates; type: in vivo; conditions: 20 mg/kg
Protocol: (§2) For in gel ABPP analysis, after anesthetizing, mice were decapitated and target tissues were harvested and flash frozen in liquid N2 without perfusion or fixation. Each mouse hemisphere and liver were washed with ice cold PBS on ice (2×1 mL) to remove excessive blood. Tissues were homogenized in 1 mL PBS and sonicated for 10 min in ice cold water. Tissues were centrifuged (1000 g, 10 min, 4° C.) and supernatant was then centrifuged at high speed (100,000 g, 45 min, 4° C.). Supernatant was discarded and remaining pellets were gently washed with ice cold PBS (2×0.5 mL). Pellets were resuspended by gentle pipetting and protein concentrations were quantified by the Bio-Rad DC Protein Assay Kit. Proteomes were then diluted to […] for immediate use or aliquoted and stored at −80° C.
(§3) In gel click chemistry ABPP assay: Click chemistry labeling of alkyne inhibitors was performed as previously reported (Niphakis et al., ACS Chem Neurosci 3, 418-426, 2012). Click reaction buffer was prepared by mixing CuSO4 (50 mM in H2O, 1.0 μL/reaction), TBTA (1.7 mM in 1:4 DMSO/t-BuOH, 3.0 μL/reaction), freshly prepared TCEP (50 mM in H2O, 1.0 μL/reaction) and 5-TAMRA azide (1.25 mM in DMSO, 1.0 μL/reaction). For every 50 μL tissue proteome ([…]), 6 μL click buffer was added. Reaction mixture was gently mixed and kept in a dark drawer for 1 hour at RT. […]

MAGL = target: T2, MAGL (Mus musculus, UniProt O35678); experiment: Gel-based CC-ABPP of whole brain lysates; type: in vivo; conditions: 1 mg/kg
T2 construct: from tissue; host or cells: mouse brain hemisphere, 100,000 g membrane pellet
T2 sequence (O35678 1-303): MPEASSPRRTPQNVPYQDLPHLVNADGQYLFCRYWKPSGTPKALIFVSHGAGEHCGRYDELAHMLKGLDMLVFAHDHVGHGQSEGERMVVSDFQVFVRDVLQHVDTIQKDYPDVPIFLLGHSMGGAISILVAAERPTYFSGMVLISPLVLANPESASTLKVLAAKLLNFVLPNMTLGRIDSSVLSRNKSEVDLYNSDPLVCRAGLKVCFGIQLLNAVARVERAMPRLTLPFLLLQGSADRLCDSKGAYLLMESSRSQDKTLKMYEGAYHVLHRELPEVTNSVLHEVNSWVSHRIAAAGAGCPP
Protocol: as §2, §3

| Structure (SMILES) | Clinical safety / toxicity [1] | Clinical safety / toxicity ([1]; listed as BIA 10-2474) | FAAH target binding by competitive CATCH (FAAH [2]; 0.01 mg/kg PF7845, then 1 mg/kg PF7845-yne) | FAAH inhibition by competitive CATCH, cortex vs hippocampus (FAAH [2]; 0.02 mg/kg PF7845, then PF7845-yne 1 mg/kg, 1 h, i.p.) | FAAH inhibition by competitive CATCH (FAAH [2]; 0.05 mg/kg PF7845, then 1 mg/kg PF7845-yne) | Duration of FAAH blockage to competitive probe binding (FAAH [2]; 24 hours after PF7845 administration) | Effect of pre-treatment on PF7845-yne-generated CATCH signals across the brain (FAAH [2]; pharmacological blocking experiment) | Effect of pre-treatment on MJN110-yne binding in soma and axon terminals ([3]; PF7845 pre-treatment, then MJN110-yne, hippocampus) | Off-target engagement in gel-based CC-ABPP (FAAH [4]) | Target engagement in gel-based CC-ABPP (MAGL) | Subcellular localisation of CATCH signal, low dose ([3]; 1 mg/kg, hippocampus CA1) | Overall fluorescence intensity in hippocampus ([3]; 20 mg/kg vs 1 mg/kg) | Subcellular localisation of CATCH signal, high dose ([3]; 20 mg/kg, hippocampus) | Specificity of CATCH signals ([3]; pretreatment with parent MJN110 and MAGL−/− mice) |
| --- | --- | --- | --- | --- | --- | --- | --- | --- | --- | --- | --- | --- | --- | --- |
| CN(C(=O)n1cnc(-c2ccc[n+]([O-])c2)c1)C1CCCCC1 [BIA-10-2474] | Unanticipated toxicity | associated with clinical neurological toxicities |  |  |  |  |  |  |  |  |  |  |  |  |
| O=C(Nc1cccnn1)N1CCC(=Cc2cccc(Oc3ccc(C(F)(F)F)cn3)c2)CC1 [PF7845] | considered a safe FAAH inhibitor |  | no target binding was detected | Cortical PF7845-yne is fully blocked; also recorded: fully inhibited in the cortex but not in the hippocampus | full FAAH inhibition was achieved | sustained FAAH blockage to competitive probe binding | completely abolished | significantly suppressed MJN110-yne binding in the soma, but not axon terminals |  |  |  |  |  |  |
| C#Cc1ccc(C(c2ccc(Cl)cc2)N2CCN(C(=O)ON3C(=O)CCC3=O)CC2)cc1 (stereo not drawn) [MJN110-yne] |  |  |  |  |  |  |  |  | substantial off-target engagement of FAAH | selectively engaged MAGL | binding in presynaptic terminals; also recorded: restricted to synapsin positive axon terminals | overall higher fluorescence intensity | spread to the neuronal soma | confirmed the specificity |
